The target in assay [1] is Bifunctional dihydrofolate reductase-thymidylate synthase (Plasmodium vivax, UniProt O02604). The experiment in a line: Inhibitor Screening Using Bacterial System (IC50) and Measurement of Inhibition Constant (Ki). Conditions: pH 7; 25 °C. The procedure:
(§1) Nineteen Pyr analogs were studied for their inhibition activity against cells expressing either WT or SP21 mutant PvDHFR-TS. The assays were conducted with 96-well microplates by monitoring the growth at an optical density of 595 nm (A595). The average A595 of control culture omitting Pyr analogs was scored as 100% growth, and the average readings for the cultures at each drug concentration were divided by this value to obtain relative growth values. The concentrations that inhibited 50% bacterial growth (IC50s) were determined from dose-response curves. Inhibition constants (Ki) of antifolates were calculated using a nonlinear least square fit of the data to the Michaelis-Menten equation, assuming the inhibitor binds competitively to the enzyme active site.

In assay [2] the target is T1, Bifunctional dihydrofolate reductase-thymidylate synthase [1-238,S58R,S117N] (Plasmodium vivax, UniProt O02604, S117N/S58R).
T1 construct: 1-238
T1 sequence (O02604 1-238, looked up, stated change not applied): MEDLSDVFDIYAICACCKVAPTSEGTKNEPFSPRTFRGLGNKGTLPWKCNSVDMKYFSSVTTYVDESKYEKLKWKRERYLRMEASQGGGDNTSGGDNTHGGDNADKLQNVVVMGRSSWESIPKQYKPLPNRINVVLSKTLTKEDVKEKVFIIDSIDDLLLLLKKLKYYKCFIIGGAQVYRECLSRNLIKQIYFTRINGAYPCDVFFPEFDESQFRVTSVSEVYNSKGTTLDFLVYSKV
The description is as above. The procedure: as §1

This is an account of results in BindingDB's records for doi:10.1128/AAC.00448-06 (National Center For Genetic Engineering and Biotechnology …, 2006).

Sequence of Bifunctional dihydrofolate reductase-thymidylate synthase (O02604 whole entry): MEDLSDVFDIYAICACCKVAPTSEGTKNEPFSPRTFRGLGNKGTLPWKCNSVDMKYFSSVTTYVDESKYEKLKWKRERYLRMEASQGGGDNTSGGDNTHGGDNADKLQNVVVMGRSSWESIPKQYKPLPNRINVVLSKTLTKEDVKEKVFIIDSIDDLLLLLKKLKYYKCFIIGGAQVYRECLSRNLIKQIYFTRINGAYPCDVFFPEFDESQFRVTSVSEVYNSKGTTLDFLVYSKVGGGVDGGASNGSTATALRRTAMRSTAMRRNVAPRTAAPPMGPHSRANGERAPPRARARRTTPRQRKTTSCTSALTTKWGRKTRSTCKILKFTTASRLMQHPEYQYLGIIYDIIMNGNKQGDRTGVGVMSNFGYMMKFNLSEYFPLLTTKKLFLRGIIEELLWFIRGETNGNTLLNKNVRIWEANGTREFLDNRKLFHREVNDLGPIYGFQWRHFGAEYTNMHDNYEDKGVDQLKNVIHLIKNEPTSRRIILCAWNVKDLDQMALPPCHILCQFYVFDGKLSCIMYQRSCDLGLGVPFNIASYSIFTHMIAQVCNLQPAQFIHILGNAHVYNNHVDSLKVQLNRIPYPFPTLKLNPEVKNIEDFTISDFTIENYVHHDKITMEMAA

In assay [1], `CCc1nc(N)nc(N)c1-c1ccc(Cl)cc1` came in with an IC50 of 180 nM and a Ki of 0.21 nM. In assay [2], 20000 nM corresponded to half-maximal inhibition (IC50) and the Ki amounted to 3.04 nM.

As for `Cc1nc(N)nc(N)c1-c1ccc(Cl)cc1`, in assay [1], the IC50 turned out to be 1950 nM and the Ki amounted to 0.78 nM. Further, in assay [2], the IC50 is above 50000 nM and the Ki was determined as 63.4 nM.

In assay [1], `COC(=O)CCCc1nc(N)nc(N)c1-c1ccc(Cl)cc1` showed a half-maximal inhibitory concentration (IC50) of 200 nM and a Ki of 0.69 nM. For the same compound, in assay [2], the IC50 is above 50000 nM and the Ki is 7.43 nM.

As to `CCc1nc(N)nc(N)c1-c1ccc(OC)cc1`, the IC50 in assay [1] is 350 nM; in assay [2] it was above 50000 nM. Besides, the figures for the Ki in assay [1] and in assay [2] were 1.01 nM and 37.8 nM, respectively.

In assay [1], `CCc1nc(N)nc(N)c1-c1ccc(Cl)c(Cl)c1` showed an IC50 of 70 nM and a Ki of 0.52 nM. In assay [2], this compound yielded a half-maximal inhibitory concentration (IC50) of 10500 nM and an inhibition constant (Ki) of 1.05 nM.

For `Nc1nc(N)c(-c2cccc(Cl)c2)c(CCCc2ccccc2)n1`, the figures for the IC50 in assay [1] and in assay [2] were 2380 nM and 13900 nM, respectively. Further, the Ki in assay [1] amounted to 0.77 nM; in assay [2] it was 1.32 nM.

For `CCc1nc(N)nc(N)c1-c1ccccc1`, in assay [1], the IC50 worked out at 1820 nM and the Ki amounted to 0.03 nM. In assay [2], this compound yielded an IC50 of 1520 nM and a Ki of 0.08 nM.

As to `Cc1nc(N)nc(N)c1-c1ccccc1`, in assay [1], it took 11300 nM to reach half-maximal inhibition (IC50) and the inhibition constant Ki was 4.18 nM. In assay [2], the midpoint of inhibition, the IC50, lay at 12800 nM and affinity was put at a Ki of 22.5 nM.

In assay [1], `Nc1nc(N)c(-c2ccccc2)c(CCCc2ccccc2)n1` yielded an IC50 of 800 nM and a Ki of 0.53 nM. In addition, in assay [2], half-maximal inhibition (IC50) required 2760 nM and the affinity corresponds to a Ki of 0.81 nM.

`Nc1nc(N)c(-c2cccc(Cl)c2)c(CCOCCCOc2ccccc2)n1` [5-(3-chlorophenyl)-6-[2-(3-phenoxypropoxy)ethyl]pyrimidine-2,4-diamine]: the IC50 turned out to be 2270 nM in assay [1] and 14200 nM in assay [2]. For the same compound, the Ki in assay [1] was 0.63 nM; in assay [2] it was 1.53 nM.

Take `CCc1nc(N)nc(N)c1-c1cccc(Cl)c1` [5-(3-chlorophenyl)-6-ethylpyrimidine-2,4-diamine]: the IC50 in assay [1] came to 360 nM; in assay [2], 300 nM. The inhibition constant (Ki) in assay [1] was 0.31 nM; in assay [2], 0.54 nM.

Take `Cc1nc(N)nc(N)c1-c1cccc(Cl)c1` [5-(3-chlorophenyl)-6-methylpyrimidine-2,4-diamine]: the IC50 in assay [1] came out at 2120 nM; in assay [2], 1980 nM. The inhibitory constant (Ki) was 0.69 nM in assay [1] and 1.19 nM in assay [2].

For `CCc1nc(N)nc(N)c1-c1ccc(Br)cc1` [5-(4-bromophenyl)-6-ethylpyrimidine-2,4-diamine], the figures for the half-inhibitory concentration (IC50) in assay [1] and in assay [2] were 90 nM and 30000 nM, respectively. Further, the Ki is 0.78 nM in assay [1] and 6.59 nM in assay [2].

In assay [1], `CC(C)Cc1nc(N)nc(N)c1-c1ccc(Cl)cc1` [5-(4-chlorophenyl)-6-(2-methylpropyl)pyrimidine-2,4-diamine] returned an IC50 of 220 nM and a Ki of 1.4 nM. For the same compound, in assay [2], the IC50 amounted to 18200 nM and the Ki was found to be 28.1 nM.

Consider `CCCCCCCCCc1nc(N)nc(N)c1-c1ccc(Cl)cc1` [5-(4-chlorophenyl)-6-nonylpyrimidine-2,4-diamine], for which, in assay [1], the IC50 was found to be 2200 nM and the Ki was found to be 4.29 nM. In assay [2], this compound came in with an IC50 above 50000 nM and a Ki of 24.5 nM.

In assay [1], `Nc1ncc(-c2ccc(Cl)cc2)c(N)n1` [5-(4-chlorophenyl)pyrimidine-2,4-diamine] returned an IC50 of 1520 nM and a Ki of 3.42 nM. In assay [2], this compound yielded a half-inhibitory concentration (IC50) above 50000 nM and a Ki of 1080 nM.

On to `CCc1nc(N)nc(N)c1-c1ccc(C(C)(C)C)cc1` [5-(4-tert-butylphenyl)-6-ethylpyrimidine-2,4-diamine], for which the IC50 in assay [1] is 1760 nM; in assay [2] it was above 50000 nM. The Ki was 1.14 nM in assay [1] and 47.5 nM in assay [2].

With `CCc1nc(N)nc(N)c1-c1ccc(C)cc1` [6-ethyl-5-(4-methylphenyl)pyrimidine-2,4-diamine], the IC50 in assay [1] was determined as 140 nM; in assay [2], 12400 nM. The values for the Ki in assay [1] and in assay [2] were 0.39 nM and 2.21 nM, respectively.

`CCCCCCc1nc(N)nc(N)c1-c1ccccc1` [6-hexyl-5-phenylpyrimidine-2,4-diamine]: the IC50 in assay [1] is 230 nM. In addition, in assay [2], the IC50 came to 3020 nM and the Ki amounted to 0.9 nM.

By IC50 is commonly meant the concentration that gives 50% inhibition. What is called Ki is a measure of affinity in units of concentration, obtained from inhibition or displacement. Higher therefore signals weaker binding.
